Assay results published in the supplement of paper PMC5579334.
± gives the standard deviation of the averaged measurements.

Legend:
ST8814 [1] = assay: drug sensitivity score (DSS, CellTox-Green cytotoxicity, 72 h) (DSS (dimensionless)); higher = more cytotoxic; extreme values may be limits of the assay
Summary of the method: (§1)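 MPNST cell lines and primary human Schwann cells were incubated 72 h at 37 °C in 384-well plates holding five 10-fold compound dilutions. CellTox-Green was added before seeding at a final 1:1000 dilution and reported fluorescence from DNA released by disrupted cells. Signals were scaled to vehicle and positive-control wells, and cultures failing plate quality control were dropped. Drug sensitivity score and relative IC50 come from four-parameter logistic fits, with IC50 censored at the top concentration.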

HS-PSS [2] = assay: as above
Summary of the method: as §1

STS26T [3] = assay: as above
Summary of the method: as §1

[4] = system: HSC1 (primary human Schwann cells); assay: as above
Summary of the method: as §1

[5] = system: HSC2 (primary human Schwann cells); assay: as above
Summary of the method: as §1

S1507-2 [6] = assay: as above
Summary of the method: as §1

ST8814 [7] = assay: drug sensitivity score (DSS, CellTiter-Glo viability, 72 h) (DSS (dimensionless)); higher = more sensitive; extreme values may be limits of the assay
Summary of the method: (§2)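 MPNST cell lines and primary human Schwann cells (750–1000 cells per well) went into 384-well plates preprinted with each compound at five concentrations in 10-fold steps. Plates were incubated 72 h at 37 °C, 5% CO2. Viability was read as CellTiter-Glo ATP luminescence, scaled between vehicle and positive-control wells, with duplicates averaged where present. Percent inhibition is at the top concentration; drug sensitivity score and relative IC50 (censored at top concentration) come from four-parameter logistic fits.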

YST-1 [8] = assay: as above
Summary of the method: as §2

HS-PSS [9] = assay: as above
Summary of the method: as §2

S462 [10] = assay: as above
Summary of the method: as §2

HS-Sch-2 [11] = assay: as above
Summary of the method: as §2

STS26T [12] = assay: as above
Summary of the method: as §2

[13] = system: HSC1 (primary human Schwann cells); assay: as above
Summary of the method: as §2

[14] = system: HSC2 (primary human Schwann cells); assay: as above
Summary of the method: as §2

S1507-2 [15] = assay: as above
Summary of the method: as §2

ST8814 [16] = assay: % inhibition of CellTiter-Glo viability at highest tested concentration (72 h), relative to DMSO and benzethonium chloride controls; higher = more inhibition
Summary of the method: as §2

YST-1 [17] = assay: as above
Summary of the method: as §2

HS-PSS [18] = assay: as above
Summary of the method: as §2

S462 [19] = assay: as above
Summary of the method: as §2

HS-Sch-2 [20] = assay: as above
Summary of the method: as §2

STS26T [21] = assay: as above
Summary of the method: as §2

[22] = system: HSC1 (primary human Schwann cells); assay: as above
Summary of the method: as §2

[23] = system: HSC2 (primary human Schwann cells); assay: as above
Summary of the method: as §2

S1507-2 [24] = assay: as above
Summary of the method: as §2

| SMILES | drug sensitivity score (ST8814 [1]) | drug sensitivity score (HS-PSS [2]) | drug sensitivity score (STS26T [3]) | drug sensitivity score [4] | drug sensitivity score [5] | drug sensitivity score (S1507-2 [6]) | drug sensitivity score (ST8814 [7]) | drug sensitivity score (YST-1 [8]) | drug sensitivity score (HS-PSS [9]) | drug sensitivity score (S462 [10]) | drug sensitivity score (HS-Sch-2 [11]) | drug sensitivity score (STS26T [12]) | drug sensitivity score [13] | drug sensitivity score [14] | drug sensitivity score (S1507-2 [15]) | % inhibition (ST8814 [16]) [%] | % inhibition (YST-1 [17]) [%] | % inhibition (HS-PSS [18]) [%] | % inhibition (S462 [19]) [%] | % inhibition (HS-Sch-2 [20]) [%] | % inhibition (STS26T [21]) [%] | % inhibition [22] [%] | % inhibition [23] [%] | % inhibition (S1507-2 [24]) [%] |
| --- | --- | --- | --- | --- | --- | --- | --- | --- | --- | --- | --- | --- | --- | --- | --- | --- | --- | --- | --- | --- | --- | --- | --- | --- |
| O=C(CCCCCCC(=O)Nc1ccc([C@H]2O[C@@H](CSc3nc(-c4ccccc4)c(-c4ccccc4)o3)C[C@@H](c3ccc(CO)cc3)O2)cc1)NO [Tubacin] (max concentration tested 10000 nM) | 2.33 | 0.31 | 3.25 | 0 | 0 | 0.0428 ± 0.06 | 3.74 | 4.41 | 4.53 | 3.54 ± 1.2 | 3.9 | 3.13 | 3.73 | 3.24 | 3.73 ± 1 | 64.2 | 56.1 | 48 | 64.9 ± 20 | 63.7 | 60.2 | 70 | 56.6 | 67.9 ± 7.1 |
| CN1CCc2c(c3ccccc3n2Cc2ccc(C(=O)NO)cc2)C1 [Tubastatin A] (max concentration tested 10000 nM) | 0 | 0 | 2.56 | 0 | 0 | 0.928 ± 1.3 | 1.84 | 4.65 | 3.48 | 4.36 ± 0.37 | 3.88 | 3.1 | 1.74 | 1.75 | 3.45 ± 0.18 | 40.8 | 52.4 | 60.9 | 80.8 ± 8.9 | 74.3 | 52.5 | 36.4 | 23.3 | 52.1 ± 7.6 |
| CN[C@@H]1C[C@H]2O[C@@](C)([C@@H]1OC)n1c3ccccc3c3c4c(c5c6ccccc6n2c5c31)C(=O)N[C@H]4O [UCN-01] (max concentration tested 10000 nM) | 13.8 | 6.62 | 29.4 | 15.9 | 21.7 | 15.35 ± 0.12 | 27.3 | 21.8 | 22.1 | 31.03 ± 0.038 | 26.7 | 27.9 | 27.8 | 30.9 | 32.23 ± 0.17 | 105 | 89.8 | 100 | 105.6 ± 0.5 | 102 | 104 | 102 | 103 | 105 ± 1.4 |
| COc1cc2c(NC3CCN(C(C)C)CC3)nc(C3CCCCC3)nc2cc1OCCCN1CCCC1 [UNC0638] (max concentration tested 10000 nM) | 7.41 | 6.72 | 5.16 | 0 | 0 | 23.4 ± 25 | 6.45 | 6.1 | 8.75 | 6.31 ± 2.1 | 7.32 | 5.05 | 0.362 | 0.116 | 8.72 ± 0.32 | 98.6 | 100 | 101 | 98.9 ± 1.6 | 101 | 99.1 | 21.5 | 14.9 | 99.6 ± 1 |
| COc1cc2c(NC3CCN(C(C)C)CC3)nc(N3CCC(F)(F)CC3)nc2cc1OCCCN1CCCC1 [UNC0642] (max concentration tested 10000 nM) | 5.37 | 4.78 | 6.03 | 0 | 0 | 7.07 ± 1.3 | 5.87 | 5.26 | 6.56 | 5.99 ± 0.77 | 6.08 | 5.57 | 0 | 0 | 8.23 ± 0.62 | 99.1 | 94.9 | 99.3 | 93 ± 3 | 100 | 96.5 | 7.89 | 7.25 | 101.9 ± 0.52 |
| O=C(c1ccc(C(=O)N2CCC(N3CCCC3)CC2)c(Nc2ccccc2)c1)N1CCC(N2CCCC2)CC1 [UNC1215] (max concentration tested 30000 nM) | 0 | 0 | 0 | 0 | 0 | 0 | 0.198 | 0 | 0.73 | 0 | 0.38 | 0 | 0 | 0 | 0 | 13.9 | -5.53 | 20.4 | 2.34 ± 0.36 | 15.2 | 3.37 | 8.9 | 5.83 | 5.34 ± 1.7 |
| Cc1cnc(Nc2ccc(F)cc2Cl)nc1-c1c[nH]c(C(=O)N[C@H](CO)c2cccc(Cl)c2)c1 [VX-11E] (max concentration tested 2500 nM) | 5.09 | 0 | 2.55 | 2 | 4.5 | 2.31 ± 3.2 | 3.25 | 0 | 2.39 | 0.861 ± 0.47 | 6.97 | 1.5 | 3.7 | 4.46 | 1.62 ± 0.29 | 67.8 | 6.16 | 44.5 | 29.1 ± 8.6 | 71.8 | 34 | 64.2 | 71.8 | 40.7 ± 3 |
| CCCCC(=O)OCC(=O)[C@]1(O)Cc2c(O)c3c(c(O)c2[C@@H](O[C@H]2C[C@H](NC(=O)C(F)(F)F)[C@H](O)[C@H](C)O2)C1)C(=O)c1c(OC)cccc1C3=O [Valrubicin] (max concentration tested 5000 nM) | 0 | 0 | 0 | 0 | 0 | 0.125 ± 0.18 | 13.6 | 19.3 | 11.7 | 14.22 ± 0.059 | 14.3 | 13.5 | 14 | 14.1 | 10.19 ± 0.1 | 97.2 | 100 | 97.5 | 94.14 ± 0.67 | 101 | 97.7 | 95.1 | 98.5 | 92.5 ± 2.8 |
| COc1cc2/c(=N/c3ccc(Br)cc3F)nc[nH]c2cc1OCC1CCN(C)CC1 [Vandetanib] (max concentration tested 1000 nM) | 0 | 0.53 | 0 | 0 | 0 | 0.78 ± 1.1 | 0 | 0 | 4.01 | 0 | 0 | 0.185 | 0 | 0 | 1.44 ± 2 | 1.05 | 2.38 | 34.2 | 11.2 ± 6.6 | 8.38 | 14.5 | -0.207 | -4.21 | 28 ± 9.4 |
| CCc1c(C(=O)C(N)=O)c2c(OCC(=O)O)cccc2n1Cc1ccccc1 [Varespladib] (max concentration tested 10000 nM) | 0 | 0 | 0 | 0 | 0 | 0.519 ± 0.73 | 0 | 0 | 0 | 0.641 ± 0.91 | 0 | 0 | 0.748 | 0 | 0.0077 ± 0.011 | 5.74 | 3.3 | 4.52 | 7.05 ± 10 | 0.4 | 7.98 | 13.8 | 9.85 | 6.19 ± 5.8 |
| Clc1ccc(Nc2nnc(Cc3ccncc3)c3ccccc23)cc1 [Vatalanib] (max concentration tested 10000 nM) | 0 | 0 | 0 | 0 | 0 | 0 | 0 | 1.52 | 0 | 0 | 1.77 | 0 | 0 | 0.0903 | 0 | 1.01 | 10.3 | 11.8 | 5.29 ± 6.4 | 12.3 | 6.33 | 5.92 | 13.4 | 2.66 ± 4.9 |
| C[C@]1(c2nc3c(C(N)=O)cccc3[nH]2)CCCN1 [Veliparib] (max concentration tested 10000 nM) | 0 | 0 | 0 | 0 | 0 | 0 | 0 | 4.89 | 0 | 0.0431 ± 0.061 | 0 | 0 | 0.338 | 0.954 | 1.93 ± 2.7 | 9.88 | 49 | 10 | 12 ± 3.7 | 2.46 | 10.6 | 14.6 | 18.2 | 10.9 ± 5.5 |
| CCCS(=O)(=O)Nc1ccc(F)c(C(=O)c2c[nH]c3ncc(-c4ccc(Cl)cc4)cc23)c1F [Vemurafenib] (max concentration tested 10000 nM) | 0.417 | 0 | 2.82 | 0 | 0 | 0 | 0 | 0 | 1.03 | 0 | 1.24 | 3.31 | 6.16 | 6.66 | 0.879 ± 1.2 | 1.91 | 1.68 | 29.3 | 12.6 ± 17 | 34.4 | 41.5 | 70.2 | 70.7 | 7.31 ± 3.8 |
